Experimental data taken from ChEMBL document CHEMBL2169826, “Pharmacokinetic benefits of 3,4-dimethoxy substitution of a phenyl ring and design of isosteres yielding orally available cathepsin K inhibitors” (J Med Chem, 2012).
≈ marks a conversion by molar mass, not a printed value.

Experiments:
Procathepsin L = Procathepsin L (Homo sapiens, UniProt P07711); assay: Inhibition of human recombinant cathepsin-L using Z-Phe-Arg-AMC as substrate preincubated for 15 mins measured after 1 hr by QFRET assay
Chain of Procathepsin L (P07711 whole entry): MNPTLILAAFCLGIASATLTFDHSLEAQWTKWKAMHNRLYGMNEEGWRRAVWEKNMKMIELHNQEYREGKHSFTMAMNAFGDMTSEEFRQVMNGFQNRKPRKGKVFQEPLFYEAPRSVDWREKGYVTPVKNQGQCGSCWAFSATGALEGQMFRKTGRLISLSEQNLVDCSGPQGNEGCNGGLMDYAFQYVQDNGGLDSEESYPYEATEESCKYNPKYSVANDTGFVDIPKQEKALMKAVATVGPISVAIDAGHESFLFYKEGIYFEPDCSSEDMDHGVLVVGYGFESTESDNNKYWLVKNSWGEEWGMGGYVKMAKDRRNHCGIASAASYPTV

Cathepsin S = Cathepsin S (Homo sapiens, UniProt P25774); assay: Inhibition of human recombinant cathepsin-S using Z-Val-Val-Arg-AMC as substrate preincubated for 15 mins measured after 1 hr by QFRET assay
Chain of Cathepsin S (P25774 whole entry): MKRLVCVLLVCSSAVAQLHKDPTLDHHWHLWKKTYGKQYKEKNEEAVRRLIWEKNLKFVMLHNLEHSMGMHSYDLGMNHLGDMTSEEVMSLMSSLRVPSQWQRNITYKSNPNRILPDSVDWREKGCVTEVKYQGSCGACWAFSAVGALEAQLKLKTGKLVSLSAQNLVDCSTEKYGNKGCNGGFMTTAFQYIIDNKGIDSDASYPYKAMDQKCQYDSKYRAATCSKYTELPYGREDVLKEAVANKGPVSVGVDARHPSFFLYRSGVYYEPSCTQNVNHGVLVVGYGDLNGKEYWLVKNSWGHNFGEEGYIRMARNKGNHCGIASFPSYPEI

[1] = Metabolic stability of the compound in human liver microsomes assessed as compound turnover after 120 mins
[2] = Metabolic stability of the compound in rat liver microsomes assessed as compound turnover after 120 mins
[3] = Oral bioavailability in Alderley Park Han Wistar rat at 2 mg/kg; type: ADME, organism-based; details: in vivo
[4] = Percentage unbound in human plasma; type: ADME, cell-free
Cathepsin B = Cathepsin B (Homo sapiens, UniProt P07858); assay: Inhibition of human recombinant cathepsin-B using Z-Arg-Arg-AMC as substrate preincubated for 15 mins measured after 1 hr by QFRET assay
in vivo = details: Alderley Park Han Wistar, rat, plasma, iv, 2 mg/kg
Cathepsin K = molecular target: T1, Cathepsin K (Homo sapiens, UniProt P43235); assay: Inhibition of human recombinant cathepsin-k using Z-Phe-Arg-AMC as substrate preincubated for 15 mins measured after 1 hr by QFRET assay
T1 sequence (P43235 whole entry): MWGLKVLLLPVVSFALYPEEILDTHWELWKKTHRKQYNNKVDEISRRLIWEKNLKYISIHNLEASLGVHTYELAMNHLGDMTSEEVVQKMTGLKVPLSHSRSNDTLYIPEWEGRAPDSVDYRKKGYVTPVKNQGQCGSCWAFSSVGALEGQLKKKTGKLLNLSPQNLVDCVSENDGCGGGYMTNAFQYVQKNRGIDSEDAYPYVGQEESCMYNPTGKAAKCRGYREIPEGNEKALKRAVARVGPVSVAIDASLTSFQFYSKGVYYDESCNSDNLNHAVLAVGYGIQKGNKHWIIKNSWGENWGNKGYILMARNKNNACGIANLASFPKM

[5] = Aqueous solubility of the compound in at pH 7.4; details: buffer
in vitro = details: rat, hepatocytes
[6] = Volume of distribution at steady state in Alderley Park Han Wistar rat at 2 mg/kg, iv and 2 mg/kg, po; type: ADME, organism-based; details: in vivo, read-out: Vdss
[7] = Percentage unbound in rat plasma; type: ADME, cell-free
physchem = details: buffer, pH 7.4
[8] = Inhibition of osteoclastogenesis in human bone marrow-derived stem cells assessed as reduction of pit formation by measuring TRACP5b activity after 7 days by bone TRAP assay; type: functional; details: 168 h

| SMILES | IC50 (Procathepsin L) | IC50 (Cathepsin S) | microsomal CLint at 2 h [1] | microsomal CLint at 2 h [2] | bioavailability [3] | fraction unbound [4] | IC50 (Cathepsin B) | clearance (in vivo) | IC50 (Cathepsin K) | solubility [5] | hepatocyte CLint (in vitro) | Vd [6] | fraction unbound [7] | logD (physchem) | IC50 [8] |
| --- | --- | --- | --- | --- | --- | --- | --- | --- | --- | --- | --- | --- | --- | --- | --- |
| CS(=O)(=O)c1ccc(N2CCN(C(=O)[C@@H]3CCCC[C@H]3C(=O)NC3(C#N)CC3)CC2)cc1 | > 10 µM | 2.15 µM | < 2 µL/min/mg | < 2.2 µL/min/mg | 16% | > 0.5 | 2.4 µM | 22 mL/min/kg | 0.018 µM | 2500 µM (≈ 1150 µg/mL) |  |  |  |  |  |
| N#CC1(NC(=O)[C@@H]2CCCC[C@H]2C(=O)N2CCN(c3ccccc3)CC2)CC1 | > 10 µM | 2.26 µM | 6.9 µL/min/mg | 107 µL/min/mg | 0.2% | > 0.28 | 1.44 µM | 19 mL/min/kg | 0.015 µM |  | 36 µL/min/1e6 cells | 1.1 L/kg | 0.28 |  |  |
| Cc1nn(C)c2ccc(N3CCN(C(=O)[C@@H]4CCCC[C@H]4C(=O)NC4(C#N)CC4)[C@H](C)C3)cc12 | > 10 µM | 1.23 µM |  |  | 64% | 0.25 | 0.971 µM |  | 0.009 µM | > 1400 µM |  | 2.5 L/kg | 0.27 | 2.8 |  |
| N#CCNC(=O)[C@@H]1CCCC[C@H]1C(=O)N1CCN(c2ccc(F)cc2)CC1 | > 10 µM | 1.68 µM | < 2.9 µL/min/mg | 31 µL/min/mg |  | 0.39 | 0.315 µM |  | 0.023 µM | > 3700 µM |  |  |  | 1.9 |  |
| CC1(C)CN(c2ccc(S(C)(=O)=O)cc2)CCN1C(=O)[C@@H]1CCCC[C@H]1C(=O)NC1(C#N)CC1 | > 10 µM | 3.75 µM | < 2 µL/min/mg | 4.9 µL/min/mg |  |  | 3.51 µM |  | 0.045 µM |  |  |  |  |  |  |
| COc1ccc(N2CCN(C(=O)[C@@H]3CCCC[C@H]3C(=O)NC3(C#N)CC3)[C@H](C)C2)nc1OC | > 10 µM | 1.1 µM | 4.2 µL/min/mg | 13 µL/min/mg | 55% | 0.24 | 1.69 µM | 15 mL/min/kg | 0.005 µM | > 1700 µM | < 2 µL/min/1e6 cells | 0.7 L/kg | 0.41 | 2.3 |  |
| C[C@H]1CN(c2ccc(S(C)(=O)=O)cc2)CCN1C(=O)[C@@H]1CCCC[C@H]1C(=O)NC1(C#N)CC1 | > 10 µM | 1.51 µM | < 2 µL/min/mg | < 2 µL/min/mg |  |  | 3.43 µM |  | 0.059 µM |  |  |  |  |  |  |
| N#CCNC(=O)[C@@H]1CCCC[C@H]1C(=O)N1CCN(c2ccc(C#N)cc2)CC1 | > 10 µM | 2.6 µM |  |  |  | 0.53 |  |  | 0.025 µM |  |  |  |  | 1.8 |  |
| C[C@@H]1CN(c2ccc(S(C)(=O)=O)cc2)C[C@H](C)N1C(=O)[C@@H]1CCCC[C@H]1C(=O)NC1(C#N)CC1 | > 10 µM | > 11.8 µM | < 2 µL/min/mg | < 2 µL/min/mg |  |  | 24.9 µM |  | 0.211 µM |  |  |  |  |  |  |
| CC(C)(F)C[C@H](N[C@@H](c1ccc(-c2ccc(S(C)(=O)=O)cc2)cc1)C(F)(F)F)C(=O)NC1(C#N)CC1 [ODANACATIB] |  |  |  |  |  |  |  |  |  |  |  |  |  |  | 0.1 µM |
| COc1ccc(N2CCN(C(=O)[C@@H]3CCCC[C@H]3C(=O)NCC#N)CC2)cc1 | > 10 µM | 1.05 µM | 7.1 µL/min/mg | 77 µL/min/mg |  | > 0.5 | 0.399 µM |  | 0.006 µM | 390 µM (≈ 150 µg/mL) |  |  |  | 1.6 |  |
| CC1CN(c2ccc(S(C)(=O)=O)cc2)C(C)CN1C(=O)[C@@H]1CCCC[C@H]1C(=O)NC1(C#N)CC1 (stereo not given in full) | > 10 µM | > 7.43 µM | < 2 µL/min/mg | 4.3 µL/min/mg |  |  | 40 µM |  | 0.312 µM |  |  |  |  |  |  |
| COc1cccc(N2CCN(C(=O)[C@@H]3CCCC[C@H]3C(=O)NCC#N)CC2)c1 | > 10 µM |  | 5.6 µL/min/mg | 149 µL/min/mg |  |  |  |  | 0.008 µM |  |  |  |  |  |  |
| C[C@@H]1CN(c2ccc(S(C)(=O)=O)cc2)CCN1C(=O)[C@@H]1CCCC[C@H]1C(=O)NC1(C#N)CC1 | > 10 µM | 0.549 µM | 9.4 µL/min/mg | < 2 µL/min/mg |  |  | 0.977 µM |  | 0.012 µM |  |  |  |  |  |  |
| C[C@@H]1CN(c2ccc3c(c2)OCO3)CCN1C(=O)[C@@H]1CCCC[C@H]1C(=O)NC1(C#N)CC1 | > 10 µM | 1.15 µM | 8.8 µL/min/mg | 83 µL/min/mg |  |  | 0.645 µM |  | 0.009 µM |  |  |  |  |  |  |
| COc1cccc2c3c([nH]c12)CCN(C(=O)[C@@H]1CCCC[C@H]1C(=O)NC1(C#N)CC1)C3 |  |  |  |  |  |  |  |  |  |  |  |  |  |  | 0.032 µM |
| Cc1ccc(N2CCN(C(=O)[C@@H]3CCCC[C@H]3C(=O)NCC#N)CC2)cc1 | > 10 µM |  |  |  |  |  | 0.572 µM |  | 0.011 µM |  |  |  |  |  |  |
| N#CCNC(=O)[C@@H]1CCCC[C@H]1C(=O)N1CCN(c2ccccc2)CC1 | > 10 µM |  |  |  |  | > 0.5 |  |  |  |  |  |  |  |  |  |
| C[C@@H]1CN(c2ccccc2)CCN1C(=O)[C@@H]1CCCC[C@H]1C(=O)NCC#N | > 10 µM | 1.22 µM | 16 µL/min/mg | > 347 µL/min/mg |  |  | 0.462 µM |  | 0.006 µM |  |  |  |  |  |  |
| COc1ccc(N2CCN(C(=O)[C@@H]3CCCC[C@H]3C(=O)NC3(C#N)CC3)CC2)cc1 | > 10 µM |  | < 2 µL/min/mg | 48 µL/min/mg | 3.5% | 0.46 | 1.44 µM | > 73 mL/min/kg | 0.014 µM | > 2000 µM | 42 µL/min/1e6 cells | 1.1 L/kg | 0.25 | 1.7 |  |
| Cc1nnc(C)c2cc(N3CCN(C(=O)[C@@H]4CCCC[C@H]4C(=O)NC4(C#N)CC4)[C@H](C)C3)ccc12 | > 10 µM | 1.75 µM |  |  | 1.4% | 0.49 | 2.94 µM |  | 0.017 µM |  |  | 4.1 L/kg | 0.62 | 1.9 |  |
| C[C@@H]1CN(c2ccccc2)CCN1C(=O)[C@@H]1CCCC[C@H]1C(=O)NC1(C#N)CC1 | > 10 µM | 1.3 µM | 20 µL/min/mg | > 347 µL/min/mg |  |  | 0.649 µM |  | 0.011 µM |  |  |  |  | 2.4 |  |
| CS(=O)(=O)c1ccc(N2CCN(C(=O)[C@@H]3CCCC[C@H]3C(=O)NCC#N)CC2)cc1 | > 10 µM | 1.29 µM | < 2 µL/min/mg | < 5.3 µL/min/mg |  | > 0.5 | 1.18 µM |  | 0.011 µM | 280 µM (≈ 121 µg/mL) |  |  |  | 0.67 |  |
